Where two headings read alike, the source gives them in different places.
Columns and labels:
[1] = tested on: liver injury induced by carbon tetrachloride; conditions: serum day 61, n=6
Method: Experiment 3 Protection of 5-Methyltetrahydrofolate Calcium on Liver Injury Induced by Carbon Tetrachloride
30 SPF-grade SD rats were chosen in half female and half male and randomly divided into vehicle control group (vegetable oil), model control group (1.5 ml·kg−1, 20% carbon tetrachloride vegetable oil solvent, intraperitoneal injection every 3 days), 5-methyltetrahydrofolate calcium low-dose group (1mg·Kg−1), 5-methyltetrahydrofolate calcium medium-dose group (2 mg·Kg−1), and 5-methyltetrahydrofolate calcium high-dose group (4 mg·Kg−1) according to their body weight. 20% carbon tetrachloride vegetable oil solvent was used as the inducer, and intraperitoneal injection was performed every 3 days for a total of 60 days. After successful modeling, the administration groups were given a dosage of 5-methyltetrahydrofolate calcium as prescribed above for gavage once a day, and the model group and the normal control group were gavaged once daily with purified water for 60 consecutive days. Blood was taken on the 61st day, and the levels of ALT and AST in serum were detected.

[2] = tested on: hyperlipemia rats; assay: Hyperlipemia rats (high-fat diet), body mass, liver mass, liver index, NASH pathology; assay type: in vivo, SD rats; conditions: for Body mass / Liver index / Liver mass: 8 cases; for Pathological state (NASH): of 8 cases
Method: Experiment 5 Effect of 5-Methyltetrahydrofolate Calcium on Hyperlipemia Rats
7 weeks later, one rat in the control group and one rat in the model group were sacrificed for liver tissue section to check fatty degeneration of hepatocytes (see Table 7) to confirm whether modeling was successful. The remaining 40 modeling rats were randomly divided into low-dose (1 mg·Kg−1) group, medium-dose (2 mg·Kg−1) group, high-dose (4 mg·Kg−1) group, positive drug group, and model group.
Bicyclol (place of origin: Beijing Xiehe Pharmaceutical Factory, specification: 25 mg/tablet, batch number: H20040467) was used as a positive drug.
After successful modeling, rats were administered drugs with dosages as prescribed for 60 consecutive days, continued to be fed with high-fat diet, and dissected on the 61st day. Liver was harvested and weighed, liver index was calculated, right lobe tissue was taken to prepare frozen sections, and fat staining was performed with Sudan III for pathological scoring according to guidelines for diagnosis and treatment of NAFLD. Another liver tissue was taken to prepare homogenate, and total cholesterol (TC), triglyceride (TG), malondialdehyde (MDA), and superoxide dismutase (SOD) in serum were detected.

[3] = tested on: alcoholic steatohepatitis; conditions: 4 mg·Kg−1 daily
Method: Experiment 12 Effect of 5-Methyltetrahydrofolate on Intestine Induced by Chronic Alcohol
96 SPF-grade SD rats, half female and half male, were chosen with an average weight of 176-220 g at the beginning of the experiment, and randomly divided into vehicle control group (glucose, 10 g·Kg−1) and model control group (liquor, 6 g·Kg−1), 5-methyltetrahydrofolate calcium group (folic acid, 4 mg·Kg−1, glucose, 10 g·Kg−1), half female and half, 16 rats in each group. […] The day on which the dose of alcohol reached 6g·Kg−1 was defined as the first day of modeling. The intestinal permeability of rats was measured at Weeks 2 and 8, then 5 rats were sacrificed at random, blood and liver tissues were taken.
8 weeks later, rats in the remaining groups received fecal microbiota transplantation from patients with alcoholic steatohepatitis, and were sacrificed at Week 10, then blood and liver tissues were taken.
60 g of stools were collected from patients with alcoholic steatohepatitis, mixed with 300 mL of normal saline and filtered, and the bacteria solution was stored in an anaerobic bag at 4° C. for later use. After 8 weeks, the remaining rats in all groups were anesthetized with ether, and catheter was used to slowly inject the bacteria solution (2 mL) into their colon, and the rats continued to be fed with the same doses the next day. At Week 10, all rats were sacrificed, liver tissues were stained with H&E and sectioned for disease assessment. At least three different sections of each rat were studied to reasonably assess liver lesions. In order to reasonably assess fatty degeneration, necrosis, inflammation, and fibrosis of liver, liver lesions were graded into different degrees. The proportion of fatty liver cells was <50%, 50-75% and >75%, respectively, corresponding to the severity of fatty degeneration. Focal necrosis was also quantified (number of necrotic foci/mm2), and dense inflammatory infiltrates were also graded. Alcoholic steatohepatitis (ASH) is defined as the presence of inflammatory cell infiltration, spot necrosis and stem cell necrosis in the liver.

[4] = 1 mg·kg−1·d−1 gavage 60 d after CCl4 modeling
[5] = 2 mg·kg−1·d−1 gavage 60 d after CCl4 modeling
[6] = 4 mg·kg−1·d−1 gavage 60 d after CCl4 modeling
[7] = Week 10 after fecal microbiota transplantation, n = 6

5-methyltetrahydrofolate calcium
ALT [1, 4]: 54.64 ± 20.52 IU/L | AST [1, 4]: 185.73 ± 63.46 IU/L | ALT [1, 5]: 50.54 ± 20.12 IU/L | AST [1, 5]: 156.97 ± 50.35 IU/L | ALT [1, 6]: 40.84 ± 16.31 IU/L | AST [1, 6]: 125.87 ± 43.84 IU/L | Body mass ([2]; high dose 4 mg·Kg−1, 60 d): 472.49 ± 37.8 g | Liver index ([2]; high dose 4 mg·Kg−1, 60 d): 2.3 ± 0.5 | Liver mass ([2]; high dose 4 mg·Kg−1, 60 d): 10.9 ± 2.5 g | Pathological state (NASH) ([2]; high dose 4 mg·Kg−1, 60 d): 0 case | Body mass ([2]; low dose 1 mg·Kg−1, 60 d): 445.89 ± 39.0 g | Liver index ([2]; low dose 1 mg·Kg−1, 60 d): 3.4 ± 0.3 | Liver mass ([2]; low dose 1 mg·Kg−1, 60 d): 15.3 ± 3.5 g | Pathological state (NASH) ([2]; low dose 1 mg·Kg−1, 60 d): 1 case | Body mass ([2]; medium dose 2 mg·Kg−1, 60 d): 452.93 ± 37.5 g | Liver index ([2]; medium dose 2 mg·Kg−1, 60 d): 2.6 ± 0.2 | Liver mass ([2]; medium dose 2 mg·Kg−1, 60 d): 11.6 ± 2.9 g | Pathological state (NASH) ([2]; medium dose 2 mg·Kg−1, 60 d): 0 case

CN1c2c([nH]c(N)nc2=O)NCC1CNc1ccc(C(=O)N[C@@H](CCC(=O)O)C(=O)O)cc1 (stereo partly drawn) [5-methyltetrahydrofolate, N-[4-[[(2-amino-1,4,5,6,7,8-hexahydro-4-oxo-5-methyl-(6S), -(6R), and (6R,S)-pteridyl)methyl)amino)toluoyl-glutamic acid]
Case percentage: fatty degeneration, percentage of fatty liver cells 50-75% ([3]; Week 8, n = 5): 20% | Case percentage: fatty degeneration, percentage of fatty liver cells < 50% ([3]; Week 8, n = 5): 80% | Case percentage: fatty degeneration, percentage of fatty liver cells > 75% ([3]; Week 8, n = 5): 0% | Case percentage: inflammatory foci 1-4 pcs/mm^2 ([3]; Week 8, n = 5): 0% | Case percentage: inflammatory foci <1 pc/mm^2 ([3]; Week 8, n = 5): 100% | Case percentage: inflammatory foci >4 pcs/mm^2 ([3]; Week 8, n = 5): 0% | Case percentage: liver fibrosis ([3]; Week 8, n = 5): 0% | Case percentage: necrosis foci 1-3 pcs/mm^2 ([3]; Week 8, n = 5): 0% | Case percentage: necrosis foci <1 pc/mm^2 ([3]; Week 8, n = 5): 100% | Case percentage: necrosis foci >3 pcs/mm^2 ([3]; Week 8, n = 5): 0% | Case percentage: fatty degeneration, percentage of fatty liver cells 50-75% [3, 7]: 33.3% | Case percentage: fatty degeneration, percentage of fatty liver cells < 50% [3, 7]: 66.7% | Case percentage: fatty degeneration, percentage of fatty liver cells > 75% [3, 7]: 0% | Case percentage: inflammatory foci 1-4 pcs/mm^2 [3, 7]: 0% | Case percentage: inflammatory foci <1 pc/mm^2 [3, 7]: 100% | Case percentage: inflammatory foci >4 pcs/mm^2 [3, 7]: 0% | Case percentage: liver fibrosis [3, 7]: 0% | Case percentage: necrosis foci 1-3 pcs/mm^2 [3, 7]: 0% | Case percentage: necrosis foci <1 pc/mm^2 [3, 7]: 100% | Case percentage: necrosis foci >3 pcs/mm^2 [3, 7]: 0%
